Reference: patent US20110039721A1, “METHOD FOR PREDICTION ABOUT CARCINOGENICITY OF SUBSTANCE IN RODENT” (Chemicals Evaluation and Research Institute, priority 2007, published 2011)

What was measured:
[1] = test system: mRNA expressed from the genes (A) to (D) in rat liver; experiment: Behavior of genes (mRNA expression level, oligo-DNA microarray) in rat liver after 28-day oral administration; assay type: in vivo
How it was run: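 Liver mRNA measured by oligo-DNA microarray after 28 days of once-daily oral gavage in 5-week-old male F344 rats (n=4 per group), with vehicle controls given equal solvent volume. Significance threshold: 1.5-fold up or down versus control, with changes opposite in direction to other carcinogens counted as not significant.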

liver = conditions: in vivo; cited from earlier work
rodent = conditions: in vivo; cited from earlier work
[2] = (A), Unigene Rn.144554, defined direction +, rat liver, oral once daily 28 days
[3] = (A), Unigene Rn.167075, defined direction +, rat liver, oral once daily 28 days, significant = 1.5 times or more or 1/1.5 or less of control
[4] = (A), Unigene Rn.167075, defined direction −, rat liver, oral once daily 28 days
[5] = (A), Unigene Rn.5834, defined direction +, rat liver, oral once daily 28 days
[6] = (A), Unigene Rn.9836, defined direction +, rat liver, oral once daily 28 days
[7] = (B), Unigene Rn.1430, defined direction −, rat liver, oral once daily 28 days
[8] = (B), Unigene Rn.19329, defined direction +, rat liver, oral once daily 28 days
[9] = (B), Unigene Rn.21240, defined direction +, rat liver, oral once daily 28 days
[10] = (C), Unigene Rn.106184, defined direction +, rat liver, oral once daily 28 days
[11] = (C), Unigene Rn.108075, defined direction −, rat liver, oral once daily 28 days
[12] = (C), Unigene Rn.11766, defined direction +, rat liver, oral once daily 28 days
[13] = (C), Unigene Rn.118529, defined direction −, rat liver, oral once daily 28 days
[14] = (C), Unigene Rn.119024, defined direction −, rat liver, oral once daily 28 days
[15] = (C), Unigene Rn.120914, defined direction +, rat liver, oral once daily 28 days
[16] = (C), Unigene Rn.123063, defined direction −, rat liver, oral once daily 28 days
[17] = (C), Unigene Rn.143213, defined direction −, rat liver, oral once daily 28 days
[18] = (C), Unigene Rn.144946, defined direction −, rat liver, oral once daily 28 days
[19] = (C), Unigene Rn.14744, defined direction −, rat liver, oral once daily 28 days
[20] = (C), Unigene Rn.1647, defined direction −, rat liver, oral once daily 28 days
[21] = (C), Unigene Rn.164817, defined direction +, rat liver, oral once daily 28 days
[22] = (C), Unigene Rn.167685, defined direction −, rat liver, oral once daily 28 days
[23] = (C), Unigene Rn.185941, defined direction −, rat liver, oral once daily 28 days
[24] = (C), Unigene Rn.18728, defined direction −, rat liver, oral once daily 28 days
[25] = (C), Unigene Rn.201760, defined direction +, rat liver, oral once daily 28 days
[26] = (C), Unigene Rn.23969, defined direction +, rat liver, oral once daily 28 days
[27] = (C), Unigene Rn.24561, defined direction −, rat liver, oral once daily 28 days
[28] = (C), Unigene Rn.43232, defined direction −, rat liver, oral once daily 28 days
[29] = (C), Unigene Rn.4620, defined direction +, rat liver, oral once daily 28 days
[30] = (C), Unigene Rn.9757, defined direction +, rat liver, oral once daily 28 days
[31] = (C), Unigene Rn.9779, defined direction +, rat liver, oral once daily 28 days
[32] = (C), Unigene Rn.9862, defined direction −, rat liver, oral once daily 28 days
[33] = (D), Unigene Rn.9939, defined direction −, rat liver, oral once daily 28 days

Oc1cccc2cccnc12 [TS007, 8-Hydroxyquinoline]
Behavior of gene caused by administration of chemical substance, Gene No. 154 ([1]; rat, in vivo): − | Behavior of gene caused by administration of chemical substance, Gene No. 533 ([1]; rat, in vivo): − | Behavior of gene caused by administration of chemical substance, Gene No. 725 ([1]; rat, in vivo): − | Behavior of gene caused by administration of chemical substance, Gene No. 813 ([1]; rat, in vivo): − | Behavior of gene caused by administration of chemical substance, Gene No. 893 ([1]; rat, in vivo): − | Behavior of gene caused by administration of chemical substance, Gene No. 1119 ([1]; rat, in vivo): − | Behavior of gene caused by administration of chemical substance, Gene No. 1131 ([1]; rat, in vivo): − | Behavior of gene caused by administration of chemical substance, Gene No. 1163 ([1]; rat, in vivo): − | Behavior of gene caused by administration of chemical substance, Gene No. 1334 ([1]; rat, in vivo): − | Behavior of gene caused by administration of chemical substance, Gene No. 1494 ([1]; rat, in vivo): − | Behavior of gene caused by administration of chemical substance, Gene No. 1562 ([1]; rat, in vivo): − | Behavior of gene caused by administration of chemical substance, Gene No. 1741 ([1]; rat, in vivo): − | Behavior of gene caused by administration of chemical substance, Gene No. 1993 ([1]; rat, in vivo): − | Behavior of gene caused by administration of chemical substance, Gene No. 2026 ([1]; rat, in vivo): − | Behavior of gene caused by administration of chemical substance, Gene No. 2045 ([1]; rat, in vivo): − | Behavior of gene caused by administration of chemical substance, Gene No. 2203 ([1]; rat, in vivo): − | Behavior of gene caused by administration of chemical substance, Gene No. 2494 ([1]; rat, in vivo): − | Behavior of gene caused by administration of chemical substance, Gene No. 2546 ([1]; rat, in vivo): − | Behavior of gene caused by administration of chemical substance, Gene No. 3776 ([1]; rat, in vivo): − | Behavior of gene caused by administration of chemical substance, Gene No. 3929 ([1]; rat, in vivo): − | Behavior of gene caused by administration of chemical substance, Gene No. 4095 ([1]; rat, in vivo): − | Behavior of gene caused by administration of chemical substance, Gene No. 4218 ([1]; rat, in vivo): − | Behavior of gene caused by administration of chemical substance, Gene No. 4846 ([1]; rat, in vivo): − | Behavior of gene caused by administration of chemical substance, Gene No. 4973 ([1]; rat, in vivo): − | Behavior of gene caused by administration of chemical substance, Gene No. 5600 ([1]; rat, in vivo): − | Behavior of gene caused by administration of chemical substance, Gene No. 5634 ([1]; rat, in vivo): − | Behavior of gene caused by administration of chemical substance, Gene No. 5726 ([1]; rat, in vivo): + | Behavior of gene caused by administration of chemical substance, Gene No. 5878 ([1]; rat, in vivo): − | Behavior of gene caused by administration of chemical substance, Gene No. 6026 ([1]; rat, in vivo): − | Behavior of gene caused by administration of chemical substance, Gene No. 6182 ([1]; rat, in vivo): − | Behavior of gene caused by administration of chemical substance, Gene No. 6303 ([1]; rat, in vivo): − | Behavior of gene caused by administration of chemical substance, Gene No. 6620 ([1]; rat, in vivo): − | Behavior of gene caused by administration of chemical substance, Gene No. 6742 ([1]; rat, in vivo): − | Liver carcinogenicity (liver): Cr− | Carcinogenicity (rodent): C−

CCN(CC)N=O [TS011, Diethylnitrosamine]
Behavior of gene caused by administration of chemical substance, Gene No. 4846 [1, 2]: + | Behavior of gene caused by administration of chemical substance, Gene No. 4218 [1, 3]: + | Behavior of gene caused by administration of chemical substance, Gene No. 2026 [1, 4]: + | Behavior of gene caused by administration of chemical substance, Gene No. 6182 [1, 5]: + | Behavior of gene caused by administration of chemical substance, Gene No. 5600 [1, 6]: + | Behavior of gene caused by administration of chemical substance, Gene No. 1494 [1, 7]: + | Behavior of gene caused by administration of chemical substance, Gene No. 2045 [1, 8]: − | Behavior of gene caused by administration of chemical substance, Gene No. 2203 [1, 9]: − | Behavior of gene caused by administration of chemical substance, Gene No. 533 [1, 10]: + | Behavior of gene caused by administration of chemical substance, Gene No. 725 [1, 11]: − | Behavior of gene caused by administration of chemical substance, Gene No. 1163 [1, 12]: − | Behavior of gene caused by administration of chemical substance, Gene No. 4973 [1, 13]: + | Behavior of gene caused by administration of chemical substance, Gene No. 4095 [1, 14]: + | Behavior of gene caused by administration of chemical substance, Gene No. 1334 [1, 15]: − | Behavior of gene caused by administration of chemical substance, Gene No. 6620 [1, 15]: − | Behavior of gene caused by administration of chemical substance, Gene No. 6303 [1, 16]: + | Behavior of gene caused by administration of chemical substance, Gene No. 5878 [1, 17]: − | Behavior of gene caused by administration of chemical substance, Gene No. 1131 [1, 18]: − | Behavior of gene caused by administration of chemical substance, Gene No. 1562 [1, 19]: + | Behavior of gene caused by administration of chemical substance, Gene No. 1741 [1, 20]: + | Behavior of gene caused by administration of chemical substance, Gene No. 893 [1, 21]: + | Behavior of gene caused by administration of chemical substance, Gene No. 6026 [1, 22]: + | Behavior of gene caused by administration of chemical substance, Gene No. 154 [1, 23]: + | Behavior of gene caused by administration of chemical substance, Gene No. 1993 [1, 24]: + | Behavior of gene caused by administration of chemical substance, Gene No. 813 [1, 25]: − | Behavior of gene caused by administration of chemical substance, Gene No. 2494 [1, 26]: + | Behavior of gene caused by administration of chemical substance, Gene No. 2546 [1, 27]: + | Behavior of gene caused by administration of chemical substance, Gene No. 3776 [1, 28]: − | Behavior of gene caused by administration of chemical substance, Gene No. 3929 [1, 29]: − | Behavior of gene caused by administration of chemical substance, Gene No. 1119 [1, 30]: − | Behavior of gene caused by administration of chemical substance, Gene No. 6742 [1, 31]: − | Behavior of gene caused by administration of chemical substance, Gene No. 5634 [1, 32]: − | Behavior of gene caused by administration of chemical substance, Gene No. 5726 [1, 33]: − | Liver carcinogenicity (liver): Cr+ | Carcinogenicity (rodent): C+

O=NN1CCOCC1 [TS014, N-Nitrosomorpholine]
Behavior of gene caused by administration of chemical substance, Gene No. 4846 [1, 2]: + | Behavior of gene caused by administration of chemical substance, Gene No. 4218 [1, 3]: + | Behavior of gene caused by administration of chemical substance, Gene No. 2026 [1, 4]: + | Behavior of gene caused by administration of chemical substance, Gene No. 6182 [1, 5]: + | Behavior of gene caused by administration of chemical substance, Gene No. 5600 [1, 6]: + | Behavior of gene caused by administration of chemical substance, Gene No. 1494 [1, 7]: + | Behavior of gene caused by administration of chemical substance, Gene No. 2045 [1, 8]: − | Behavior of gene caused by administration of chemical substance, Gene No. 2203 [1, 9]: − | Behavior of gene caused by administration of chemical substance, Gene No. 533 [1, 10]: − | Behavior of gene caused by administration of chemical substance, Gene No. 725 [1, 11]: − | Behavior of gene caused by administration of chemical substance, Gene No. 1163 [1, 12]: + | Behavior of gene caused by administration of chemical substance, Gene No. 4973 [1, 13]: − | Behavior of gene caused by administration of chemical substance, Gene No. 4095 [1, 14]: − | Behavior of gene caused by administration of chemical substance, Gene No. 1334 [1, 15]: − | Behavior of gene caused by administration of chemical substance, Gene No. 6620 [1, 15]: − | Behavior of gene caused by administration of chemical substance, Gene No. 6303 [1, 16]: − | Behavior of gene caused by administration of chemical substance, Gene No. 5878 [1, 17]: − | Behavior of gene caused by administration of chemical substance, Gene No. 1131 [1, 18]: − | Behavior of gene caused by administration of chemical substance, Gene No. 1562 [1, 19]: − | Behavior of gene caused by administration of chemical substance, Gene No. 1741 [1, 20]: − | Behavior of gene caused by administration of chemical substance, Gene No. 893 [1, 21]: − | Behavior of gene caused by administration of chemical substance, Gene No. 6026 [1, 22]: − | Behavior of gene caused by administration of chemical substance, Gene No. 154 [1, 23]: − | Behavior of gene caused by administration of chemical substance, Gene No. 1993 [1, 24]: + | Behavior of gene caused by administration of chemical substance, Gene No. 813 [1, 25]: + | Behavior of gene caused by administration of chemical substance, Gene No. 2494 [1, 26]: − | Behavior of gene caused by administration of chemical substance, Gene No. 2546 [1, 27]: − | Behavior of gene caused by administration of chemical substance, Gene No. 3776 [1, 28]: − | Behavior of gene caused by administration of chemical substance, Gene No. 3929 [1, 29]: − | Behavior of gene caused by administration of chemical substance, Gene No. 1119 [1, 30]: − | Behavior of gene caused by administration of chemical substance, Gene No. 6742 [1, 31]: − | Behavior of gene caused by administration of chemical substance, Gene No. 5634 [1, 32]: − | Behavior of gene caused by administration of chemical substance, Gene No. 5726 [1, 33]: − | Liver carcinogenicity (liver): Cr+ | Carcinogenicity (rodent): C+
